Measurements as given in patent publication US4542021A, “Antitumor compositions for non-injection administration” (Yamasa Shoyu Kabushiki Kaisha, priority 1978, dated 1985).

Experiments:
B16 melanoma = assay: Effectiveness against B16 melanoma (oral, 3 times a week); type: in vivo, BDF1 mice; set-up: Mean survival time (MST ± SE): unit not given here
Protocol: The B16 melanoma cells (1×10^6 cells) were implanted to the right side-abdominal hypoderms of BDF1 mice (male, 18 to 22 g). From the 13th day after the implantation to death the compounds to be tested were administered orally 3 times a week. The compounds to be tested were dissolved in a phosphate-buffered salt solution (PBS) containing 0.5% carboxymethyl-cellulose to a suitable concentration, and given to the mice at a dose rate of 0.1 ml per 10 g of each mouse's body weight. The increases in life span (%ILS) were calculated in accordance with the same formula as described in Test Example 1.

L1210 leukemia = assay: Therapeutic test on L1210 leukemia (oral, once a day); type: in vivo, BDF1 mice; details: Mus musculus, oral, read-out: % ILS (increase in life span); for ILS at 100 mg/kg/day / ILS at 200 mg/kg/day / ILS at 400 mg/kg/day: L1210, 720 h, > means some mice survived the test period (30 days); for ILS at 50 mg/kg/day / ILS at 12.5 mg/kg/day / ILS at 25 mg/kg/day / ILS at 6.25 mg/kg/day: L1210
Protocol: The L1210 leukemic cell suspension (1×10^5 cells/0.2 ml) was implanted intraperitoneally in BDF1 mice (males, 18 to 22 g, females, 16 to 20 g) (7 mice per group). From 24 hours after the implantation to the 5th day thereafter, the predetermined doses of the compounds to be tested were orally administered to the mice consecutively once a day. The compounds to be tested were dissolved or suspended in a phosphate-bufferedsalt solution (PBS) containing 0.5% carboxymethylcellulose, and given at a dose rate of 0.1 ml per 10 g of each mouse's body weight. To a control group, only the same solvent as used for the dissolution of the compounds to be tested was administered in the same way. The mean survival times (MST) for each group were calculated, and the corresponding increase in life span (%ILS) was obtained in accordance with the following formula, the results of which are shown in Table 1. [formula]

[1] = Acute toxicity test, oral (Test Example 5); set-up: species or system ICR-JCL mice; details: mouse, in vivo, neutralized ester, male mice, 14th day
Protocol: An ara-CMP ester was neutralized and dissolved in saline containing 0.5% of carboxymethylcellulose, and the resulting solution was orally administered to ICR-JCL mice (males, 24 to 26 g) in a dose of 0.2 ml per 10 g of each mouse's body weight.

L1210 leukemic cells [2] = assay: Experimental tumor proliferation model in the lymph nodes, single administration on sixth day; type: in vivo, BDF1 mice; details: po, once on sixth day
Protocol: (§1) L1210 leukemic cells (1×10^6 cells/0.05 ml) were implanted to the right inner-thigh hypoderms of BDF1 mice (males, 18 to 22 g). From one day after the transplantation, the compounds to be tested were administered intraperitoneally or orally to the mice once a day consecutively for 6 days. The compounds being tested were dissolved in a phosphate-buffered salt solution (PBS) containing 0.5% carboxymethylcellulose to a suitable concentration, and administered to the mice at a dose rate of 0.1 ml per 10 g of each mouse's body weight. The increases in life span (%ILS) were calculated similarly as in Test Example 1.
Furthermore, in a similar manner, each of the test compounds was administered only once on the sixth day after implantation.

L1210 leukemic cells [3] = assay: Experimental tumor proliferation model in the lymph nodes, once a day for 6 days; type: in vivo, BDF1 mice
Protocol: as §1

[4] = Acute toxicity test, oral (Test Example 4); set-up: species or system ICR-JCL mice; details: mouse, in vivo, male mice, observed 7 days, reliability limit 95% in parentheses
Protocol: The C18-ara-CMP ester was dissolved in saline containing 0.5% carboxymethylcellulose, and given orally to ICR-JCL mice (males, 24 to 26 g) at a dose rate of 0.2 ml per 10 g of each mouse's body weight. […] The LD50 value was;

[5] = Acute toxicity test, intraperitoneal (Test Example 4); set-up: species or system ICR-JCL mice; details: mouse, in vivo; ip, male mice, 7th day; reliability limit 95% in parentheses
Protocol: The C18-ara-CMP ester dissolved in saline was administered intraperitoneally to ICR-JCL mice (males, 24 to 26 g) at a dose rate of 0.2 ml per 10 g of each mouse's body weight. The LD50 value obtained on the 7th day was;

[6] = 50 mg/kg, * level of significance at 0.05% or lower

Structure (SMILES)	ILS at 100 mg/kg/day (L1210 leukemia)	ILS at 200 mg/kg/day (L1210 leukemia)	ILS at 400 mg/kg/day (L1210 leukemia)	ILS at 50 mg/kg/day (L1210 leukemia)	LD50 at 336 h [1]	ILS at 12.5 mg/kg/day (L1210 leukemia)	ILS at 25 mg/kg/day (L1210 leukemia)	ILS at 6.25 mg/kg/day (L1210 leukemia)	further results
O=c1[nH]cc(F)c(=O)[nH]1 [5-fluorouracil]	–	–	–	–	–	–	–	–	Increase in life span (% ILS) (B16 melanoma; 25 mg/kg): 0%; Mean survival time (MST ± SE) (B16 melanoma; 25 mg/kg): 22.0 ± 1.45; Mean survival time (MST ± SE) (B16 melanoma; 50 mg/kg): 25.0 ± 2.26; Increase in life span (% ILS) (B16 melanoma; [6]): 14%; Increase in life span (% ILS) (B16 melanoma; 100 mg/kg): -11%; Mean survival time (MST ± SE) (B16 melanoma; 100 mg/kg): 19.6 ± 0.98
CCCCCCCCCCCCCCOP(=O)(O)OC[C@H]1O[C@@H](n2ccc(N)nc2=O)[C@@H](O)[C@@H]1O [C14-ara-CMP ester, ara-CMP-tetradecyl ester]	88%	105%	134%	62%	–	–	–	–	–
CCCCCCCCCCCCCCCOP(=O)(O)OC[C@H]1O[C@@H](n2ccc(N)nc2=O)[C@@H](O)[C@@H]1O [C15-ara-CMP ester, ara-CMP-pentadecyl ester]	95%	135%	–	70%	–	–	–	–	–
CCCCCCCCCCCCCCCCOP(=O)(O)OC[C@H]1O[C@@H](n2ccc(N)nc2=O)[C@@H](O)[C@@H]1O [C16-ara-CMP ester, ara-CMP-cetyl ester]	88%	137%	> 227%	73%	2190 mg/kg	19%	30%	–	–
CCCCCCCCCCCCCCCCCOP(=O)(O)OC[C@H]1O[C@@H](n2ccc(N)nc2=O)[C@@H](O)[C@@H]1O [C17-ara-CMP ester, ara-CMP-heptadecyl ester]	123%	> 154%	-15%	87%	–	32%	52%	11%	–
CCCCCCCC/C=C\CCCCCCCCOP(=O)(O)OC[C@H]1O[C@@H](n2ccc(N)nc2=O)[C@@H](O)[C@@H]1O [C18-1-ara-CMP ester, ara-CMP-oleyl ester]	109%	120%	> 159%	81%	3750 mg/kg	39%	54%	20%	–
CCCCCCCCCCCCCCCCCCOP(=O)(O)OC[C@H]1O[C@@H](n2ccc(N)nc2=O)[C@@H](O)[C@@H]1O [C18-ara-CMP ester, ara-CMP-stearyl ester]	> 200%	53%	-7%	114%	1050 mg/kg	52%	69%	46%	Increase in life span (% ILS) (L1210 leukemic cells [2]; 250 mg/kg): 92%; Mean survival time (MST ± SE) (L1210 leukemic cells [2]; 250 mg/kg): 14.0 ± 0.53; Increase in life span (% ILS) (L1210 leukemic cells [2]; 500 mg/kg): 137%; Mean survival time (MST ± SE) (L1210 leukemic cells [2]; 500 mg/kg): 17.3 ± 0.49; Mean survival time (MST ± SE) (B16 melanoma; 50 mg/kg): 30.0 ± 1.30; Increase in life span (% ILS) (B16 melanoma; [6]): 36%; Increase in life span (% ILS) (B16 melanoma; 100 mg/kg): 17%; Mean survival time (MST ± SE) (B16 melanoma; 100 mg/kg): 25.8 ± 1.98; Increase in life span (% ILS) (B16 melanoma; 200 mg/kg): 22%; Mean survival time (MST ± SE) (B16 melanoma; 200 mg/kg): 26.8 ± 2.20; Increase in life span (% ILS) (L1210 leukemic cells [3]; ip, 25 mg/kg/day): 152%; Mean survival time (MST ± SE) (L1210 leukemic cells [3]; ip, 25 mg/kg/day): 17.4 ± 0.40; Increase in life span (% ILS) (L1210 leukemic cells [3]; ip, 50 mg/kg/day): 193%; Mean survival time (MST ± SE) (L1210 leukemic cells [3]; ip, 50 mg/kg/day): 20.2 ± 0.53; Increase in life span (% ILS) (L1210 leukemic cells [3]; po, 50 mg/kg/day): 165%; Mean survival time (MST ± SE) (L1210 leukemic cells [3]; po, 50 mg/kg/day): 18.3 ± 0.62; Increase in life span (% ILS) (L1210 leukemic cells [3]; po, 100 mg/kg/day): 188%; Mean survival time (MST ± SE) (L1210 leukemic cells [3]; po, 100 mg/kg/day): 19.9 ± 0.48; LD50 at 168 h [4]: 1400 mg/kg; LD50 at 168 h [5]: 137 mg/kg
